From US12472177B2, “Bicyclic compounds and methods for their use in treating Pitt Hopkins syndrome” (NEUREN PHARMACEUTICALS LIMITED, priority 2019, dated 2025)

Assays:
Tcf4^+/− mice [1] = test: Social interaction / sociability (time sniffing a novel mouse); format: in vivo; set-up: key to Sociability: Tukey’s Multiple Comparison Test Summary: **** = p < 0.00001; ns = not significant
Description: (§1) In vivo behavioral studies were conducted in Tcf4^+/− mutant and wildtype littermate control (WT) mice by Gen.DDI (Santiago, Chile). Littermate controls consist of the genotypes Tcf4^+/+. All Tcf4 mutant mice used were heterozygous for the Tcf4 mutation because homozygous mutations of Tcf4 result in embryonic to postnatal day 1 lethality. Ten mice per treatment group, 14 weeks of age, were used for behavioral experiments. Experiments were conducted in line with the requirements of the UK Animals (Scientific Procedures) Act, 1986. The mice were housed in plastic cages (35×30×12 cm), 5 in each and habituated to the animal facilities for at least a week before commencing the test. The room temperature (21° C.±2° C.), relative humidity (55%±5%), a 12-hour light-dark cycle (lights on 7 AM to 7 PM), and air exchange were automatically controlled. The animals had free access to commercial food pellets and water. Testing was performed during the light phase of the circadian cycle, with the order of testing being determined by the principle of conducting the most stressful tests last. Assays were designed to reproduce and expand on the original behavioral characterization of Tcf4^+/− mice. Tcf4^+/− and WT control mice were treated for 6 weeks prior to testing and tested 30 minutes following a dose of cG-2-AllylP, as described in Table 2 below.
Social recognition and social memory in humans are very important. People with PTHS show lower amounts of social recognition and memory compared with people without PTHS. […] Therefore, to determine if NNZ-2591 (cG-2-AllylP) could be effective in normalizing this condition, we carried out a series of studies in mice, in which we determined the amount of time that mice spent sniffing a novel mouse.
To carry out these studies, mice were evaluated by the amount of time spent sniffing a novel mouse upon repeated exposures, to induce familiarity, and reinstatement of high levels of sniffing when a novel stimulus animal is introduced. We measured the number of bouts of sniffing in each of the groups of animals. The time spent sniffing a novel mouse is shown on the vertical axis and the animals and treatments are shown on the horizontal axis.

Tcf4^+/− mice [2] = test: Hind limb force (motor performance); format: in vivo, mouse; set-up: key to Test of Force (Hind Limb): Tukey’s Muliple Comparison Test Summary: **** = p < 0.00001; ns = not significant
Description: as §1
Hind limb force is an important measure of the ability of a mouse to jump away from a predator. However, animals with the Tcf4^+/− mutation have substantially lower ability to jump away from a predator, making this mutation very serious and potentially life threatening. Hind limb force is also considered a surrogate for motor function in humans. To determine if NNZ-2591 (cG-2-AllylP) might provide a helpful treatment for this condition, we carried out a series of studies in which we measured hind limb force.

[3] = Delivery of cG-2-AllylP into the brain after oral administration (CSF, blood, brain exposure); format: in vivo, Sprague Dawley rats; conditions: rat
Description: In an in vivo study, male Sprague Dawley rats (aged 14 weeks) received a single dose of cG-2-AllylP, either 100 mg/kg or 200 mg/kg by oral gavage. Cerebrospinal fluid (CSF) and whole blood were collected at 1.5 and 4 hours postdose, and brain tissue was collected at 4 hours postdose to evaluate cG-2-AllylP exposure.

Tcf4^+/− mice [4] = test: Nest building (test of daily living); format: in vivo, mouse
Description: as §1
Nest building is an activity needed for mice to raise their offspring and is an indicator of social adaptation and activities of daily living. Tcf4^+/− mice build nests of substantially lower quality than wild type mice. Therefore, to determine if NNZ-2591 (cG-2-AllylP) might restore the quality of nest building, we carried out a series of studies.

[5] = Tcf4^+/− + cG-2-AllylP (100 mg/kg) vs WT + cG-2-AllylP (200 mg/kg)
[6] = Tcf4^+/− + vehicle vs Tcf4^+/− + cG-2-AllylP (100 mg/kg)
[7] = Tcf4^+/− + vehicle vs Tcf4^+/− + cG-2-AllylP (200 mg/kg)
[8] = Tcf4^+/− + vehicle vs WT + cG-2-AllylP (100 mg/kg)
[9] = Tcf4^+/− + vehicle vs WT + cG-2-AllylP (200 mg/kg)
[10] = WT + cG-2-AllylP (100 mg/kg) vs Tcf4^+/− + cG-2-AllylP (100 mg/kg)
[11] = WT + cG-2-AllylP (100 mg/kg) vs Tcf4^+/− + cG-2-AllylP (200 mg/kg)
[12] = WT + cG-2-AllylP (100 mg/kg) vs WT + cG-2-AllylP (200 mg/kg)
[13] = WT + cG-2-AllylP (200 mg/kg) vs Tcf4^+/− + cG-2-AllylP (200 mg/kg)
[14] = WT + vehicle vs Tcf4^+/− + cG-2-AllylP (100 mg/kg)
[15] = WT + vehicle vs Tcf4^+/− + cG-2-AllylP (200 mg/kg)
[16] = WT + vehicle vs WT + cG-2-AllylP (100 mg/kg)
[17] = WT mice, 100 mg/kg oral BID 6 weeks
[18] = WT mice, 200 mg/kg oral BID 6 weeks
[19] = Tcf4^+/− + cG-2-AllylP (100 mg/kg) vs Tcf4^+/− + cG-2-AllylP (200 mg/kg)
[20] = Tcf4^+/− mice, 100 mg/kg oral BID 6 weeks
[21] = Tcf4^+/− mice, 200 mg/kg oral BID 6 weeks
[22] = WT + vehicle vs WT + cG-2-AllylP (200 mg/kg)
[23] = single oral dose 100 mg/kg, 1.5 h postdose
[24] = single oral dose 100 mg/kg, 4 h postdose
[25] = single oral dose 200 mg/kg, 1.5 h postdose
[26] = single oral dose 200 mg/kg, 4 h postdose

In the case of `C=CC[C@]12CCCN1C(=O)CNC2=O` [cG-2-AllylP, (8aS)-Allyl-hexahydropyrrolo[1,2-a]pyrazine-1,4-dione], the “Sociability: Tukey’s Multiple Comparison Test Summary” value (Tcf4^+/− mice [1]; Tcf4^+/− + cG-02-AllylP (100 mg/kg) vs Tcf4^+/− + cG-2-AllylP (200 mg/kg)) was “ns”, the “Sociability: Tukey’s Multiple Comparison Test Summary” value (Tcf4^+/− mice [1]; [5]) was “ns” and the “Sociability: Tukey’s Multiple Comparison Test Summary” value (Tcf4^+/− mice [1]; [6]) was “**** (**** = p < 0.0001)”. The “Sociability: Tukey’s Multiple Comparison Test Summary” value (Tcf4^+/− mice [1]; [7]) was “**** (**** = p < 0.0001)”, the “Sociability: Tukey’s Multiple Comparison Test Summary” value (Tcf4^+/− mice [1]; [8]) was “**** (**** = p < 0.0001)” and the “Sociability: Tukey’s Multiple Comparison Test Summary” value (Tcf4^+/− mice [1]; [9]) was “**** (**** = p < 0.0001)”. For the same molecule, the “Behavior Normalized to WildType Levels: Sociability” value (Tcf4^+/− mice [1]; Tcf4^+/− mice, 100 mg/kg) was “✓”, the “Time spent sniffing a novel mouse” value (Tcf4^+/− mice [1]; Tcf4^+/− mice, 100 mg/kg oral BID 6 weeks, compared to Tcf4^+/− mice treated with vehicle only) was “substantial and statistically significant increases” and the “Behavior Normalized to WildType Levels: Sociability” value (Tcf4^+/− mice [1]; Tcf4^+/− mice, 200 mg/kg) was “✓”. For the same molecule, the “Time spent sniffing a novel mouse” value (Tcf4^+/− mice [1]; Tcf4^+/− mice, 200 mg/kg oral BID 6 weeks, compared to Tcf4^+/− mice treated with vehicle only) was “substantial and statistically significant increases”, the “Sociability: Tukey’s Multiple Comparison Test Summary” value (Tcf4^+/− mice [1]; [10]) was “ns” and the “Sociability: Tukey’s Multiple Comparison Test Summary” value (Tcf4^+/− mice [1]; [11]) was “ns”. For the same molecule, the “Sociability: Tukey’s Multiple Comparison Test Summary” value (Tcf4^+/− mice [1]; [12]) was “ns”, the “Sociability: Tukey’s Multiple Comparison Test Summary” value (Tcf4^+/− mice [1]; [13]) was “ns” and the “Sociability: Tukey’s Multiple Comparison Test Summary” value (Tcf4^+/− mice [1]; [14]) was “ns”. The “Sociability: Tukey’s Multiple Comparison Test Summary” value (Tcf4^+/− mice [1]; [15]) was “ns”, the “Sociability: Tukey’s Multiple Comparison Test Summary” value (Tcf4^+/− mice [1]; [16]) was “ns” and the “Time spent sniffing a novel mouse” value (Tcf4^+/− mice [1]; [17]) was “nearly identical times”. For the same molecule, the “Time spent sniffing a novel mouse” value (Tcf4^+/− mice [1]; [18]) was “nearly identical times”, the “Test of Force (Hind Limb): Tukey’s Muliple Comparison Test Summary” value (“Test of Force (Hind Limb)” for short) (Tcf4^+/− mice [2]; [19]) was “ns” and the “Test of Force (Hind Limb)” value (Tcf4^+/− mice [2]; [5]) was “ns”. The “Test of Force (Hind Limb)” value (Tcf4^+/− mice [2]; [6]) was “**** (**** = p <0.00001)”, the “Test of Force (Hind Limb)” value (Tcf4^+/− mice [2]; [7]) was “**** (**** = p <0.00001)” and the “Test of Force (Hind Limb)” value (Tcf4^+/− mice [2]; [8]) was “**** (**** = p <0.00001)”. The “Test of Force (Hind Limb)” value (Tcf4^+/− mice [2]; [9]) was “**** (**** = p <0.00001)”, the “Behavior Normalized to WildType Levels: Force” value (Tcf4^+/− mice [2]; Tcf4^+/− mice, 100 mg/kg) was “✓” and the Hind limb force (Tcf4^+/− mice [2]; [20]) was “nearly identical to those produced by WT mice”. The “Behavior Normalized to WildType Levels: Force” value (Tcf4^+/− mice [2]; Tcf4^+/− mice, 200 mg/kg) was “✓”, the Hind limb force (Tcf4^+/− mice [2]; [21]) was “nearly identical to those produced by WT mice” and the “Test of Force (Hind Limb)” value (Tcf4^+/− mice [2]; [10]) was “ns”. For the same molecule, the “Test of Force (Hind Limb)” value (Tcf4^+/− mice [2]; [11]) was “ns”, the “Test of Force (Hind Limb)” value (Tcf4^+/− mice [2]; [12]) was “ns” and the “Test of Force (Hind Limb)” value (Tcf4^+/− mice [2]; [13]) was “ns”. The “Test of Force (Hind Limb)” value (Tcf4^+/− mice [2]; [14]) was “ns”, the “Test of Force (Hind Limb)” value (Tcf4^+/− mice [2]; [15]) was “ns” and the “Test of Force (Hind Limb)” value (Tcf4^+/− mice [2]; [16]) was “ns”. For the same molecule, the “Test of Force (Hind Limb)” value (Tcf4^+/− mice [2]; [22]) was “ns”, the Hind limb force (Tcf4^+/− mice [2]; [17]) was “about the same levels of force as vehicle-treated WT mice” and the Hind limb force (Tcf4^+/− mice [2]; [18]) was “about the same levels of force as vehicle-treated WT mice”. The “Dose dependence of concentration in blood, CSF and brain” value ([3]; 100 vs 200 mg/kg single oral dose, blood and CSF at 1.5 h, blood, CSF and brain at 4 h) was “approximately proportional increase”, the “Concentration in blood compared with brain tissue” value ([3]; 4 hours post dose) was “approximately equivalent” and the “Concentration of cG-2-AllylP in Blood” value [3, 23] was 58500 ng/mL. For the same molecule, the “Concentration of cG-2-AllylP in CSF” value [3, 23] was 40400 ng/mL, the “Concentration of cG-2-AllylP in Blood” value [3, 24] was 15600 ng/mL and the “Concentration of cG-2-AllylP in Brain” value [3, 24] was 22600 ng/mL. The “Concentration of cG-2-AllylP in CSF” value [3, 24] was 11000 ng/mL, the “Concentration of cG-2-AllylP in Blood” value [3, 25] was 116000 ng/mL and the “Concentration of cG-2-AllylP in CSF” value [3, 25] was 82200 ng/mL. For the same molecule, the “Concentration of cG-2-AllylP in Blood” value [3, 26] was 34200 ng/mL, the “Concentration of cG-2-AllylP in Brain” value [3, 26] was 37000 ng/mL and the “Concentration of cG-2-AllylP in CSF” value [3, 26] was 24700 ng/mL. The “Test of Daily Living: Tukey’s Multiple Comparison Test Summary” value (from here on “Test of Daily Living”) (Tcf4^+/− mice [4]; [19]) was “ns”, the “Test of Daily Living” value (Tcf4^+/− mice [4]; [5]) was “ns” and the “Test of Daily Living” value (Tcf4^+/− mice [4]; [6]) was “**** (**** = p < 0.0001)”. The “Test of Daily Living” value (Tcf4^+/− mice [4]; [7]) was “**** (**** = p < 0.0001)”, the “Test of Daily Living” value (Tcf4^+/− mice [4]; [8]) was “**** (**** = p < 0.0001)” and the “Test of Daily Living” value (Tcf4^+/− mice [4]; [9]) was “**** (**** = p < 0.0001)”. The “Behavior Normalized to WildType Levels: Nesting” value (Tcf4^+/− mice [4]; Tcf4^+/− mice, 100 mg/kg) was “✓”, the “Nest building quality (grade of 1-5)” value (Tcf4^+/− mice [4]; [20]) was “normalized the quality of nests to levels nearly identical to WT mice” and the “Behavior Normalized to WildType Levels: Nesting” value (Tcf4^+/− mice [4]; Tcf4^+/− mice, 200 mg/kg) was “✓”. The “Nest building quality (grade of 1-5)” value (Tcf4^+/− mice [4]; [21]) was “normalized the quality of nests to levels nearly identical to WT mice”, the “Test of Daily Living” value (Tcf4^+/− mice [4]; [10]) was “ns” and the “Test of Daily Living” value (Tcf4^+/− mice [4]; [11]) was “ns”. For the same molecule, the “Test of Daily Living” value (Tcf4^+/− mice [4]; [12]) was “ns”, the “Test of Daily Living” value (Tcf4^+/− mice [4]; [13]) was “ns” and the “Test of Daily Living” value (Tcf4^+/− mice [4]; [14]) was “ns”. The “Test of Daily Living” value (Tcf4^+/− mice [4]; [15]) was “ns”, the “Test of Daily Living” value (Tcf4^+/− mice [4]; [16]) was “ns” and the “Test of Daily Living” value (Tcf4^+/− mice [4]; [22]) was “ns”. For the same molecule, the “Nest building quality (grade of 1-5)” value (Tcf4^+/− mice [4]; [17]) was “nearly identical to those of vehicle-treated WT mice” and the “Nest building quality (grade of 1-5)” value (Tcf4^+/− mice [4]; [18]) was “nearly identical to those of vehicle-treated WT mice”.
